Earlier results in patent US20190091190A1, “COMBINATION THERAPY FOR TREATMENT OF MULTIPLE SCLEROSIS” (FWP IP ApS, priority 2012, published 2019).
Read-outs that look alike come from different tables or passages of the source. Each block holds one compound with its values, some of them ahead of it.

Assays:
[1] = test system: patients with RRMS; settings: for reduction of 12-week confirmed disability progression as measured by EDSS: at 2 years
[2] = test system: patients with RRM
[3] = test system: patients with EDSS scores of 0-5.5 and relapses; settings: for reduction of frequency of MS relapses vs. placebo: 24 months
[4] = test system: patients with RRMS; settings: for reduction of lymphocyte counts: after 1 month; for patients remaining relapse-free: 12 months
[5] = test system: RRMS patients
[6] = test system: RRMS patients; settings: 0.6 mg once-daily oral
[7] = 7 mg or 14 mg added to glatiramer acetate, vs placebo added
[8] = test system: RRMS patients; settings: for time to first relapse during the two years of the study: 45.6% on placebo
[9] = test system: RRMS patients; remark: listed apart in the source
[10] = 7 mg and 14 mg, add-on to IFN
[11] = test system: patients with RRMS; settings: 7 mg po once-daily

Compound: COC(=O)/C=C/C(=O)OC [dimethylfumarate, trans-1,2-Ethylenedicarboxylic acid dimethyl ester]
- reduction of annualized relapse rate versus placebo ([1]; 240 mg po BID): 44%
- reduction of new T1-hypointense lesions ([1]; 240 mg po BID): 57%
- reduction of number of new or newly enlarging T2-hyperintense lesions ([1]; 240 mg po BID): 71%
- reduction of proportion of patients who relapsed ([1]; 240 mg po BID): 34%
- reduction of 12-week confirmed disability progression as measured by EDSS ([1]; 240 mg po BID): 21%
- reduction of annualized relapse rate versus placebo ([1]; 240 mg po TID): 51%
- reduction of new T1-hypointense lesions ([1]; 240 mg po TID): 65%
- reduction of number of new or newly enlarging T2-hyperintense lesions ([1]; 240 mg po TID): 73%
- reduction of proportion of patients who relapsed ([1]; 240 mg po TID): 45%
- reduction of 12-week confirmed disability progression as measured by EDSS ([1]; 240 mg po TID): 24%
- most common adverse effects ([1]; dimethylfumarate groups (BID and TID)): flushing and gastrointestinal (GI) events
- reduction in annualized relapse rate versus placebo ([2]; 240 po BID): 53%
- reduction in proportion of patients who relapsed at 2 years versus placebo (primary endpoint) ([2]; 240 po BID): 49%
- reduction in annualized relapse rate versus placebo ([2]; 240 po TID): 48%
- reduction in proportion of patients who relapsed at 2 years versus placebo (primary endpoint) ([2]; 240 po TID): 50%

- lymphopenia of less than 0.2×10^9 per liter ([3]; 0.5 mg): 3.5%
- lymphopenia of less than 0.2×10^9 per liter ([3]; 1.25 mg): 5.4%
- macular edema diagnosed ([3]; 1.25 mg): seven
- patients who developed macular edema ([4]; 0.5 mg): 0.5%
- patients who developed macular edema ([4]; 1.25 mg): 1%
Compound: CCCCCCCCc1ccc(CCC(N)(CO)CO)cc1 [fingolimod]
- AEs that led to discontinuation of the study drug ([3]; 0.5 mg): 7.5 % of patients
- reduction of frequency of MS relapses vs. placebo ([3]; 0.5 mg/day): 54%
- reduction of risk of disability progression vs. placebo ([3]; 0.5 mg/day, confirmed after 3 months): 30%
- reduction of risk of disability progression vs. placebo ([3]; 0.5 mg/day, confirmed after 6 months): 37%
- AEs that led to discontinuation of the study drug ([3]; 1.25 mg): 14.2 % of patients
- reduction of frequency of MS relapses vs. placebo ([3]; 1.25 mg/day): 60%
- reduction of risk of disability progression vs. placebo ([3]; 1.25 mg/day, confirmed after 3 months): 32%
- reduction of risk of disability progression vs. placebo ([3]; 1.25 mg/day, confirmed after 6 months): 40%
- AE leading to the discontinuation of study medication ([4]; 0.5 mg): 5.6%
- overall number of SAE ([4]; 0.5 mg): 7.0%
- reduction of lymphocyte counts ([4]; 0.5 mg): 73%
- 1-year relapse rate lower than with Avonex ([4]; 0.5 mg/day oral): 52%
- patients remaining relapse-free ([4]; 0.5 mg/day oral): 83%
- AE leading to the discontinuation of study medication ([4]; 1.25 mg): 10.0%
- overall number of SAE ([4]; 1.25 mg): 10.7%
- reduction of lymphocyte counts ([4]; 1.25 mg): 77%
- 1-year relapse rate lower than with Avonex ([4]; 1.25 mg/day oral): 38%
- patients remaining relapse-free ([4]; 1.25 mg/day oral): 80%
- time to development of transient, dose-dependent reduction in heart rate ([4]; after the initial administration): ≤ 1 h

Compound: CCN(C(=O)c1c(O)c2c(Cl)cccc2n(C)c1=O)c1ccccc1 [laquinimod]
- reduced ARR ([5]; 0.6 mg once-daily oral, pre-specified sensitivity analysis corrected for baseline imbalances): 21%
- reduction in the risk of EDSS progression ([5]; 0.6 mg, corrected analysis, p=0.044): 34%
- reduction in brain volume loss ([5]; 0.6 mg, corrected analysis, p=<0.0001): 28%
- primary endpoint of reduction in ARR versus placebo ([5]; 0.6 mg, uncorrected, p=0.075): did not reach statistical significance
- reduction in ARR ([6]; 24 months, p=0.0024): 23%
- reduction in progression of brain atrophy ([6]; p<0.0001): 33%
- reduction in the risk of EDDS progression ([6]; p=0.0122): 36%

Compound: C/C(O)=C(\C#N)C(=O)Nc1ccc(C(F)(F)F)cc1 [teriflunomide, (Z)-2-cyano-3-hydroxy-but-2-enoic acid-(4′-trifluoro-methylphenyl)-amide]
- reducing T1-Gd lesions [7]: more effective than placebo
- reduction of annualized relapse rate (ARR) at 2 years compared to placebo ([8]; 7 mg p.o. once-daily): 31.2%
- reduction of risk of disability progression ([8]; 7 mg p.o. once-daily): 24%
- reduction of the burden of disease (MRI) compared to placebo ([8]; 7 mg p.o. once-daily): 39%
- time to first relapse during the two years of the study ([8]; 7 mg): 53.7%
- reduction of annualized relapse rate (ARR) at 2 years compared to placebo ([8]; 14 mg p.o. once-daily): 31.5%
- reduction of risk of disability progression ([8]; 14 mg p.o. once-daily): 30%
- reduction of the burden of disease (MRI) compared to placebo ([8]; 14 mg p.o. once-daily): 67%
- time to first relapse during the two years of the study ([8]; 14 mg): 56.5%
- annualized relapse rate compared to placebo ([9]; 7 mg p.o. once-daily): significant reduction
- risk of 12 wk sustained accumulation of disability compared to placebo ([9]; 7 mg p.o. once-daily): no significant difference
- reduction in annualized relapse rate compared to placebo ([9]; 14 mg p.o. once-daily): 36.3%
- reduction in the risk of 12wk sustained accumulation of disability compared to placebo ([9]; 14 mg p.o. once-daily): 31.5%
- reduction in annualized relapse rate [10]: no significant effect
- relapse rate [11]: 0.410

Compound: Glatiramer acetate
- reduction of new T1-hypointense lesions ([1]; 20 mg sc once-daily): 41%
- reduction of number of new or newly enlarging T2-hyperintense lesions ([1]; 20 mg sc once-daily): 54%
- reduction of proportion of patients who relapsed ([1]; 20 mg sc once-daily): 29%
- reduction of 12-week confirmed disability progression as measured by EDSS ([1]; 20 mg sc once-daily): 7%
